From publication PMC5807903, “Combination of Virtual Screening Protocol by in Silico toward the Discovery of Novel 4-Hydroxyphenylpyruvate Dioxygenase Inhibitors” (Frontiers in Chemistry, 2018)
Like-named read-outs stand apart in the source and are kept apart here.

Molecular target: T1, AtHPPD (Arabidopsis thaliana, UniProt P93836)
T1 construct: gene HPD; recombinant enzyme supplied by Guangfu Yang research team; Fe(II) enzyme; PDB 1TFZ used for docking only
T1 sequence (P93836 1-445): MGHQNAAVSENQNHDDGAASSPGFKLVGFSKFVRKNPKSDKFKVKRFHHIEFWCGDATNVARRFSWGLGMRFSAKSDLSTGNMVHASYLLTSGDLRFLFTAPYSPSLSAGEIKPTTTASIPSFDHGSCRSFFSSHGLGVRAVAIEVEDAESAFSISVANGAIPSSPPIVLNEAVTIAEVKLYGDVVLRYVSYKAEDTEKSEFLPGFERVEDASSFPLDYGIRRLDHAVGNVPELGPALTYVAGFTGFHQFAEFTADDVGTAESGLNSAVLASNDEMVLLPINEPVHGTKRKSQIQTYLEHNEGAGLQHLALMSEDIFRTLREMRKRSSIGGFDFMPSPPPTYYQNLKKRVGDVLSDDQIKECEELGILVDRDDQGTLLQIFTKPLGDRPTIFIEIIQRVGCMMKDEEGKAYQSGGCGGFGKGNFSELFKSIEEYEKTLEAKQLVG
Assay: HGD-coupled assay, maleylacetoacetate at […] nm
Format: biochemical

Row | Structure (SMILES) | IC50 (read-out: IC50) | IC50
1 | Cc1cc(O)c(C(=O)/C=C/c2ccccc2)c(=O)o1 [compound 3881, 3-cinnamoyl-4-hydroxy-6-methyl-2H-pyran-2-one] | 2490 nM | 
2 | CS(=O)(=O)c1ccc(C(=O)C2C(=O)CCCC2=O)c([N+](=O)[O-])c1 [Control 1, mesotrione] |  | 204 nM
